Here are results for 23 molecules from patent US20240279215A1 (Cytokinetics, Incorporated, priority 2022, published 2024).

The pEC50 is the EC50 on a negative log10 scale, so that one unit is a factor of ten.

pEC50: −log10 of the molar value.

The target of this test is human NAMPT (Homo sapiens (Human), UniProt P43490). As to the kind of experiment: NMN fluorescence biochemical assay (human recombinant NAMPT enzyme assay). An outline of the steps: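 Activation of recombinant human NAMPT (6 nM) was tested with 2.5 mM ATP, 20 μM PRPP and 150 μM nicotinamide in 50 mM HEPES pH 7.2 for 60 min at ambient temperature. NMN was derivatized with acetophenone/KOH/formic acid and read by fluorescence (355/460 nm) after 40 min.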
human NAMPT, sequence (P43490 whole entry): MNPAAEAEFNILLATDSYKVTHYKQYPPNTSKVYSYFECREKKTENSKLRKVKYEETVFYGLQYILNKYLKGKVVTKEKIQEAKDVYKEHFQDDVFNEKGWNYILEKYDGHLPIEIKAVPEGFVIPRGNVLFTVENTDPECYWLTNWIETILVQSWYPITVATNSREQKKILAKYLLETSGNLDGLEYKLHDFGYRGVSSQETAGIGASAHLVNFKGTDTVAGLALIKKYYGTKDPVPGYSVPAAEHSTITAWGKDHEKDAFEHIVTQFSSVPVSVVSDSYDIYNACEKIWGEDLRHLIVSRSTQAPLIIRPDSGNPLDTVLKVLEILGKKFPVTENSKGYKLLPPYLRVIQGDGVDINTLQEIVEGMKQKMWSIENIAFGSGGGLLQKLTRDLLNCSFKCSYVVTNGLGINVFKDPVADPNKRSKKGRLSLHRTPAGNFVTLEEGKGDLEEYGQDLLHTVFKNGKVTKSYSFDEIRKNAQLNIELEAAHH

As for `CC(C)n1nccc1C(=O)N(C)Cc1ccc(NC(=O)OCc2ccc(Cl)cc2)cc1` [Compound 131, (4-chlorophenyl)methyl N-(4-{[1-(2-isopropylpyrazol-3-yl)-N-methylformamido]methyl}phenyl)carbamate], the “AC1.4 Human” value came out at 1.05 µM and the pEC50 was 5.59.
As to `Cc1ccc(C(=O)NCc2ccc(NC(=O)OCc3ccc(C(F)F)cc3)cc2)cn1` [Compound 133, (4-(difluoro-13-methyl)phenyl)methyl (4-((6-methylnicotinamido)methyl)phenyl)carbamate], the “AC1.4 Human” value was found to be 1.07 µM and the pEC50 was 5.07.
The like results for `COC1CCN(C(=O)N(C)[C@@H](C)c2ccc(NC(=O)OCc3ccc(Cl)cc3)cc2)CC1` [Compound 134, 4-chlorobenzyl (S)-(4-(1-(4-methoxy-N-methylpiperidine-1-carboxamido)ethyl)phenyl)carbamate] were, in that order, 1.07 µM and 4.86.
The like results for `COc1cnn(C)c1C(=O)NCc1ccc(NC(=O)OCc2ccc(Cl)cc2)cc1` [Compound 135, (4-chlorophenyl)methyl N-(4-{[(4-methoxy-2-methylpyrazol-3-yl)formamido]methyl}phenyl)carbamate] were, in that order, 1.07 µM and 5.48.
With `Cc1cnc(C(=O)NCc2ccc(NC(=O)OCc3ccc(Cl)cc3)cc2)cn1` [Compound 136, (4-chlorophenyl)methyl N-(4-{[(5-methylpyrazin-2-yl)formamido]methyl}phenyl)carbamate], the “AC1.4 Human” value stood at 1.09 µM and the pEC50 was 5.65.
The like results for `CCc1cc(C(=O)N[C@@H](C)c2ccc(NC(=O)OCc3ccc(Cl)cc3)cc2)n(C)n1` [Compound 137, (4-chlorophenyl)methyl N-{4-[(1S)-1-[(5-ethyl-2-methylpyrazol-3-yl)formamido]ethyl]phenyl}carbamate] were, in that order, 1.11 µM and 5.42.
The like results for `COc1cc(C(=O)NCc2ccc(NC(=O)OCc3ccc(Cl)cc3)cc2)n(C)n1` [Compound 138, (4-chlorophenyl)methyl N-(4-{[(5-methoxy-2-methylpyrazol-3-yl)formamido]methyl}phenyl)carbamate] were, in that order, 1.11 µM and 5.08.
For the molecule `Cc1cc(C(=O)N[C@@H](C)c2ccc(NC(=O)OCc3ccc(Cl)cc3)cc2)n(C)n1` [Compound 139, (4-chlorophenyl)methyl N-{4-[(1S)-1-[(2,5-dimethylpyrazol-3-yl)formamido]ethyl]phenyl}carbamate], the “AC1.4 Human” value turned out to be 1.11 µM and the pEC50 is 4.88.
Consider `Cc1noc(C(=O)NCc2ccc(NC(=O)OCc3ccc(Cl)cc3)cc2)c1C` [Compound 140, (4-chlorophenyl)methyl N-(4-{[(3,4-dimethyl-1,2-oxazol-5-yl)formamido]methyl}phenyl)carbamate], for which the “AC1.4 Human” value was determined as 1.15 µM and the pEC50 was 5.35.
As to `Cc1nn(C)c(C(=O)N[C@@H](C)c2ccc(NC(=O)OCc3ccc(Cl)cc3)cc2)c1F` [Compound 141, (4-chlorophenyl)methyl N-{4-[(1S)-1-[(4-fluoro-2,5-dimethylpyrazol-3-yl)formamido]ethyl]phenyl}carbamate], the “AC1.4 Human” value came out at 1.17 µM and the pEC50 was 5.65.
Regarding `Cc1cnoc1C(=O)N[C@@H](C)c1ccc(NC(=O)OCc2ccc(Cl)cc2)cc1` [Compound 142, (4-chlorophenyl)methyl N-{4-[(1S)-1-[(4-methyl-1,2-oxazol-5-yl)formamido]ethyl]phenyl}carbamate], the “AC1.4 Human” value turned out to be 1.17 µM and the pEC50 was 5.13.
The like results for `C[C@@H](c1ccc(NC(=O)OCc2ccc(Cl)cc2)cc1)N(C)C(=O)N1CCCC1` [Compound 143, 4-chlorobenzyl (S)-(4-(1-(N-methylpyrrolidine-1-carboxamido)ethyl)phenyl)carbamate] were, in that order, 1.18 µM and 4.97.
Regarding `CC1CN(C(=O)N[C@@H](C)c2ccc(NC(=O)OCc3ccc(Cl)cc3)cc2)C1` [Compound 144, (4-chlorophenyl)methyl N-{4-[(1S)-1-(3-methylazetidine-1-carbonylamino)ethyl]phenyl}carbamate], the “AC1.4 Human” value is 1.18 µM and the pEC50 is 5.12.
The like results for `CC1CCN(C(=O)N[C@@H](C)c2ccc(NC(=O)OCc3ccc(Cl)cc3)cc2)CC1` [Compound 145, 4-chlorobenzyl (S)-(4-(1-(4-methylpiperidine-1-carboxamido)ethyl)phenyl)carbamate] were, in that order, 1.19 µM and 5.08.
Turning to `Cc1ncc(C(=O)NCc2ccc(NC(=O)OCc3ccc(Cl)cc3)cc2)cc1F` [Compound 146, (4-chlorophenyl)methyl N-(4-{[(5-fluoro-6-methylpyridin-3-yl)formamido]methyl}phenyl)carbamate], the “AC1.4 Human” value is 1.20 µM and the pEC50 was 5.63.
For the molecule `O=C(Nc1ccc(CNC(=O)c2c(F)cncc2F)cc1)OCc1ccc(Cl)cc1` [Compound 147, (4-chlorophenyl)methyl N-(4-{[15.2 (3,5-difluoropyridin-4-yl)formamido]methyl}phenyl)carbamate], the “AC1.4 Human” value stood at 1.22 µM and the pEC50 is 5.28.
The like results for `COC(=O)N1CCC(c2ccc(NC(=O)OCc3cnco3)cc2)CC1` [Compound 148, methyl 4-(4-(((oxazol-5-ylmethoxy)carbonyl)amino)phenyl)piperidine-1-carboxylate] were, in that order, 1.23 µM and 4.94.
Consider `C[C@H](NC(=O)c1ccnn1C)c1ccc(NC(=O)OCc2ccc(Cl)cc2)cc1` [Compound 149, (4-chlorophenyl)methyl N-{4-[(1S)-1-[(2-methylpyrazol-3-yl)formamido]ethyl]phenyl}carbamate], for which the “AC1.4 Human” value is 1.23 µM and the pEC50 was 5.15.
The like results for `Cc1nocc1C(=O)N[C@@H](C)c1ccc(NC(=O)OCc2ccc(Cl)cc2)cc1` [Compound 150, (4-chlorophenyl)methyl N-{4-[(1S)-1-[(3-methyl-1,2-oxazol-4-yl)formamido]ethyl]phenyl}carbamate] were, in that order, 1.24 µM and 5.37.
As for `O=C(Nc1ccc(C2CCS(=O)(=O)CC2)cc1)OCc1ccc(Cl)cc1` [Compound 151], the “AC1.4 Human” value turned out to be 1.25 µM and the pEC50 was 5.23.
The like results for `Cc1ncoc1C(=O)N[C@@H](C)c1ccc(NC(=O)OCc2ccc(Cl)cc2)cc1` [Compound 152, (4-chlorophenyl)methyl N-{4-[(1S)-1-[(4-methyl-1,3-oxazol-5-yl)formamido]ethyl]phenyl}carbamate] were, in that order, 1.27 µM and 4.98.
The like results for `O=C(Nc1ccc(Cc2ccncc2)cc1)OCc1cnco1` [Compound 153, oxazol-5-ylmethyl (4-(pyridin-4-ylmethyl)phenyl)carbamate] were, in that order, 1.27 µM and 4.47.
On to `C[C@H](NC(=O)N1CCOCC1)c1ccc(NC(=O)OCc2ccc(Cl)cc2)cc1` [Compound 154, 4-chlorobenzyl (S)-(4-(1-(morpholine-4-carboxamido)ethyl)phenyl)carbamate], for which the “AC1.4 Human” value turned out to be 1.30 µM and the pEC50 was 4.92.
